Columns and labels:
[1] = tested on: SMN2 minigene mRNA (SMN2-A minigene) in HEK293H cells; assay: SMN2 minigene mRNA splicing RT-qPCR assay in cultured cells; type: cell-based, human; conditions: Homo sapiens, HEK293-H; concentration increasing full length SMN2 mRNA 1.5-fold relative to vehicle-treated cells; HEK293H cells with SMN2-A minigene, 24 hours, 7-point concentration data; read-out: EC1.5x for production of full length SMN2 mRNA
Method in brief: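 EC1.5× values derive from a 24 h treatment of SMN2-A minigene HEK293H cells and GAPDH-normalized RT-qPCR of exon 7-included minigene mRNA relative to vehicle-treated cells.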

[2] = tested on: Smn protein in SMA patient fibroblast cells (GM03813); assay: Smn protein assay in cultured cells (SMN HTRF); type: cell-based, human; conditions: SMA patient fibroblast cells, 48 hours; for EC1.5x for Smn protein expression: 7-point concentration curve, SMN HTRF, concentration producing 1.5 times Smn protein vs DMSO vehicle control; for maximum fold (Fold) increase of Smn protein: 7-point concentration data, fold relative to vehicle control
Method in brief: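 Cells were cultured 72 h, seeded at 5,000/well and dosed with seven concentrations (3.16-fold apart) for 48 h. HTRF on lysates, read at 665 and 620 nm, gave blank-corrected ΔF values relative to DMSO. Potency is reported as EC1.5×, efficacy as maximal fold Smn increase.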

SMILES	melting point [°C]	EC (1.5-fold increase) [1] [µM]	EC1.5x for Smn protein expression [2]	maximum fold (Fold) increase of Smn protein [2]
CCN1CCC(c2ccc3nc(-c4cc5c(C)nc(C)cn5n4)cc(=O)n3c2)CC1 [Compound 454, 2-(4,6-dimethylpyrazolo[1,5-a]pyrazin-2-yl)-7-(1-ethylpiperidin-4-yl)-4H-pyrido[1,2-a]pyrimidin-4-one]	170 to 172	< 0.1	**** (an EC1.5x≤0.3 μM is indicated by four stars (****))	***** (a fold increase >1.65 is indicated by five stars (*****))
CCc1cc(N2CCN3CCC[C@@H]3C2)cn2c(=O)cc(-c3ccc(OC)c(OC)c3)nc12 [Compound 455, 2-(3,4-dimethoxyphenyl)-9-ethyl-7-[(8aR)-hexahydropyrrolo[1,2-a]pyrazin-2(1H)-yl]-4H-pyrido[1,2-a]pyrimidin-4-one]	180 to 184	0.1 to 0.3	–	** (a fold increase between >1.2 and ≤1.35 is indicated by two stars (**))
COCCNC1CCN(c2cc(C)c3nc(-c4ccc(OC)c(OC)c4)cc(=O)n3c2)CC1 [Compound 456, 2-(3,4-dimethoxyphenyl)-7-{4-[(2-methoxyethyl)amino]piperidin-1-yl}-9-methyl-4H-pyrido[1,2-a]pyrimidin-4-one]	178 to 182	0.1 to 0.3	–	*** (a fold increase between >1.35 and ≤1.5 is indicated by three stars (***))
Cc1cn2nc(-c3cc(=O)n4cc(N5CCN(C)CC5)cc(C)c4n3)cc2c(C)n1 [Compound 457, 2-(4,6-dimethylpyrazolo[1,5-a]pyrazin-2-yl)-9-methyl-7-(4-methylpiperazin-1-yl)-4H-pyrido[1,2-a]pyrimidin-4-one]	262 to 271	< 0.1	**** (an EC1.5x≤0.3 μM is indicated by four stars (****))	***** (a fold increase >1.65 is indicated by five stars (*****))
Cc1cn2nc(-c3cc(=O)n4cc(N5CCN6CCC[C@@H]6C5)cc(C)c4n3)cc2c(C)n1 [Compound 458, 2-(4,6-dimethylpyrazolo[1,5-a]pyrazin-2-yl)-7-[(8aR)-hexahydropyrrolo[1,2-a]pyrazin-2(1H)-yl]-9-methyl-4H-pyrido[1,2-a]pyrimidin-4-one]	244 to 256	< 0.1	*** (an EC1.5× between >0.3 μM and ≤1 μM is indicated by three stars (***))	**** (a fold increase between >1.5 and ≤1.65 is indicated by four stars (****))

Continued, in another order:

melting point [°C]	SMILES	EC (1.5-fold increase) [1] [µM]	EC1.5x for Smn protein expression [2]	maximum fold (Fold) increase of Smn protein [2]
231 to 241	Cc1cn2nc(-c3cc(=O)n4cc(N5CCC(N(C)C)CC5)cc(C)c4n3)cc2c(C)n1 [Compound 459, 7-[4-(dimethylamino)piperidin-1-yl]-2-(4,6-dimethylpyrazolo[1,5-a]pyrazin-2-yl)-9-methyl-4H-pyrido[1,2-a]pyrimidin-4-one]	< 0.1	–	*** (a fold increase between >1.35 and ≤1.5 is indicated by three stars (***))
227 to 230	Cc1cn2cc(-c3ccc4nc(C5CCN(C)CC5)cc(=O)n4c3)ccc2n1 [Compound 460, 7-(2-methylimidazo[1,2-a]pyridin-6-yl)-2-(1-methylpiperidin-4-yl)-4H-pyrido[1,2-a]pyrimidin-4-one]	0.1 to 0.3	*** (an EC1.5× between >0.3 μM and ≤1 μM is indicated by three stars (***))	**** (a fold increase between >1.5 and ≤1.65 is indicated by four stars (****))
215 to 218	Cc1cn2cc(-c3ccc4nc(C5CCN(C(C)C)CC5)cc(=O)n4c3)ccc2n1 [Compound 461, 7-(2-methylimidazo[1,2-a]pyridin-6-yl)-2-[1-(propan-2-yl)piperidin-4-yl]-4H-pyrido[1,2-a]pyrimidin-4-one]	0.3 to 1	** (an EC1.5× between >1 μM and ≤3 μM is indicated by two stars (**))	**** (a fold increase between >1.5 and ≤1.65 is indicated by four stars (****))

Source: patent publication US11753407B2, “Compounds for treating spinal muscular atrophy” (PTC Therapeutics, Inc., priority 2012, dated 2023)
